Assay [1] relates to Vero E6. Put plainly: cytotoxicity CC50 (uninfected Vero E6, ATP content); higher = less cytotoxic. The conditions noted are these: virus: none (uninfected); 72 h. The protocol:
(§1)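 Read-out is CellTiter-Glo ATP luminescence, normalised to DMSO-only wells (0% rescue) and no-virus wells (100% rescue). The cytotoxicity counter-assay used the same protocol without virus, normalised to DMSO (100% viability) and hyamine (0% viability). Confirmation used 8-point 1:3 titrations in duplicate, fitted to a four-parameter Hill equation.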

The test system of assay [2] is Vero E6. Nature of the assay: cytotoxicity maximal efficacy (% viability loss, DMSO = 0%, hyamine = 100%); higher = more cytotoxic. The conditions noted are these: virus: none (uninfected); 72 h. Here is the method: as §1
Assay [3] relates to Vero E6. Put plainly: CPE rescue EC50 (SARS-CoV-2 infected Vero E6); higher = less potent antiviral. The note with it: virus: SARS-CoV-2 USA_WA1/2020, MOI 0.002; 72 h. Here is the method:
as §1

As for `COc1ccccc1OCCNCC(O)CCOc1cccc2[nH]c3ccccc3c12` (stereo unspecified), the “cytotoxicity CC50” value in the assay on Vero E6 [1] was determined as 10000 nM. In the assay on Vero E6 [2], this molecule came in with a cytotoxicity maximal efficacy of 16.2%. `CN(C)c1cc2c(cc1Sc1nc3c(N)nccc3n1CCNCC(C)(C)C)OCO2`: the “cytotoxicity CC50” value with Vero E6 [1] amounted to 708 nM. On to `CC(=O)c1c(OCCN2CCCCC2)c(OCCC(C)c2ccc(F)cc2)c2oc(C)nc2c1C` (stereo unspecified), for which the “cytotoxicity CC50” value with Vero E6 [1] turned out to be 14100 nM. In addition, the cytotoxicity maximal efficacy with Vero E6 [2] was found to be 33.2%. In the case of `O=C(c1ccc(-c2ccc(Cl)cc2)o1)N(Cc1ccccn1)c1ccc(N2CCNCC2)cc1`, in the assay with Vero E6 [1], the “cytotoxicity CC50” value turned out to be 11200 nM. Also, the cytotoxicity maximal efficacy in the assay on Vero E6 [2] came out at 95.2%. Consider `NC(=O)c1ccccc1Nc1ccnc(Nc2cccc(O)c2)n1`, for which the “cytotoxicity CC50” value with Vero E6 [1] turned out to be 1000 nM. For the molecule `CC(=NNC(=S)N1CCC1)c1ccccn1`, the “cytotoxicity CC50” value with Vero E6 [1] was determined as 355 nM. For `CC(=O)OC[C@]12C[C@H](OC(=O)CC(C)C)C(C)=C[C@H]1O[C@@H]1[C@H](O)[C@@H](O)[C@@]2(C)[C@]12CO2`, the “cytotoxicity CC50” value in the assay on Vero E6 [1] came to 127 nM. Consider `C/C(=N\Nc1nnc2c(n1)[nH]c1c(C)cccc12)c1ccccn1`, for which the “cytotoxicity CC50” value with Vero E6 [1] is 355 nM. In addition, the cytotoxicity maximal efficacy in the assay with Vero E6 [2] came out at 76.3%. On to `COC[C@H]1OC(=O)/C(=C/N(C)CCCN(C)C)C2=C(O)C(=O)C3=C([C@H](OC(C)=O)C[C@]4(C)[C@@H](O)CC[C@@H]34)[C@]21C`, for which the “cytotoxicity CC50” value in the assay with Vero E6 [1] is 8910 nM. In the assay with Vero E6 [2], this molecule came in with a cytotoxicity maximal efficacy of 62.1%.

Consider `CC(C)(C[C@@](O)(Cc1cc2ccncc2[nH]1)C(F)(F)F)c1cc(F)ccc1O`, for which the “cytotoxicity CC50” value in the assay with Vero E6 [1] came to 15800 nM. Further, the cytotoxicity maximal efficacy in the assay with Vero E6 [2] turned out to be 22.4%.

On to `COC(=O)[C@@]12OC[C@]34[C@H]([C@@H](O)[C@@H]1O)[C@@]1(C)CC(=O)C(O)=C(C)[C@@H]1C[C@H]3OC(=O)[C@H](OC(=O)/C=C(\C)C(C)C)[C@@H]24`, for which, in the assay on Vero E6 [1], the “cytotoxicity CC50” value was found to be 142 nM.

For `Cn1cc(S(=O)(=O)c2ccc(Cl)cc2)c2cccc(N3CCNCC3)c21`, the “cytotoxicity CC50” value in the assay on Vero E6 [1] worked out at 11200 nM. The molecule also registered a cytotoxicity maximal efficacy in the assay on Vero E6 [2] of 48.3%.

As to `CC(C)C[C@H](NC(=O)[C@H](Cc1ccccc1)NC(=O)OCc1ccccc1)C(=O)C=O`, the “cytotoxicity CC50” value in the assay with Vero E6 [1] was 11200 nM. In the assay with Vero E6 [2], this molecule yielded a cytotoxicity maximal efficacy of 33.4%. In the case of `O[C@H]1[C@H]2c3cc4c(cc3CN3CCC(=C[C@@H]1O)[C@H]23)OCO4`, the “CPE rescue EC50” value with Vero E6 [3] is 631 nM. For the molecule `CO/C1=C\C(C)=C\[C@@H](C)[C@@H](O)[C@@H](C)C/C(C)=C/C=C\[C@H](OC)C([C@@H](C)[C@@H](O)[C@H](C)[C@@]2(O)C[C@@H](O)[C@H](C)C(C(C)C)O2)OC1=O` (stereo partly specified), the “cytotoxicity CC50” value with Vero E6 [1] was 101 nM. Regarding `COc1c(C)cnc(Cn2cnc3c(Cl)nc(N)nc32)c1C`, the “cytotoxicity CC50” value in the assay with Vero E6 [1] is 355 nM. Take `COc1ccc2sc(NC(c3ccc(OC(F)F)cc3)c3ccc4cccnc4c3O)nc2c1` (stereo unspecified): the “cytotoxicity CC50” value in the assay with Vero E6 [1] came out at 708 nM. The “CPE rescue EC50” value in the assay with Vero E6 [3] was determined as 891 nM.

As for `OCCCNc1cc(-c2ccnc(Nc3cccc(Cl)c3)n2)ccn1`, in the assay with Vero E6 [1], the “cytotoxicity CC50” value was determined as 112 nM. In the case of `CCc1ccc(/C=C2/SC(=S)NC2=O)cc1`, the “cytotoxicity CC50” value in the assay with Vero E6 [1] is 12600 nM. The cytotoxicity maximal efficacy in the assay with Vero E6 [2] was 34.2%. Turning to `C[C@@H]1O[C@@H](O[C@H]2[C@H](OC(=O)[C@]34CCC(C)(C)C[C@H]3C3=CCC5[C@@]6(C)CC[C@H](O[C@@H]7O[C@H](CO[C@@H]8OC[C@H](O)[C@H](O)[C@H]8O)[C@@H](O)[C@H](O)[C@H]7O)C(C)(C)C6CC[C@@]5(C)[C@]3(C)C[C@H]4O)OC[C@@H](O)[C@@H]2O)[C@H](O)[C@H](O)[C@H]1O[C@@H]1OC[C@H](O)[C@H](O[C@@H]2OC[C@@H](O)[C@H](O)[C@H]2O)[C@H]1O` (stereo partly specified), the “CPE rescue EC50” value in the assay with Vero E6 [3] is 602 nM. For `CC1(C)CC(=O)c2c(C(F)(F)F)nn(-c3ccc(C(N)=O)c(N[C@H]4CC[C@H](OC(=O)CN)CC4)c3)c2C1`, the “cytotoxicity CC50” value in the assay with Vero E6 [1] stood at 562 nM. In the case of `C(=N\Nc1nc(Nc2ccccc2)nc(N2CCOCC2)n1)/c1c[nH]c2ccccc12`, the “CPE rescue EC50” value in the assay on Vero E6 [3] was found to be 113 nM.

As for `CCOc1ccc(-c2nc(-c3cccc4c3CCC4NCCO)no2)cc1OCC` (stereo unspecified), the “cytotoxicity CC50” value with Vero E6 [1] was found to be 631 nM. On to `CC(C)(N)c1ccc(-c2nc3ccccc3nc2-c2ccccc2)cc1`, for which, in the assay on Vero E6 [1], the “cytotoxicity CC50” value turned out to be 12600 nM. This molecule also registered a cytotoxicity maximal efficacy in the assay on Vero E6 [2] of 34.2%. On to `O=C(O)c1ccc(CCCc2ccc(OCCc3ccc(F)cc3)cc2)o1`, for which the “CPE rescue EC50” value in the assay on Vero E6 [3] stood at 141 nM. Regarding `O=S(=O)(Cc1ccccc1)Nc1ccc(-c2ccc3c(cnn3-c3ccc(F)cc3)c2)c(C(F)(F)F)c1`, the “cytotoxicity CC50” value in the assay with Vero E6 [1] came out at 14100 nM. This molecule had a cytotoxicity maximal efficacy in the assay on Vero E6 [2] of 24.3%. `C/C(=N\NC(=O)c1cccc(S(=O)(=O)N2CCOCC2)c1)c1cc(Cl)ccc1O`: the “cytotoxicity CC50” value in the assay with Vero E6 [1] was 1000 nM.

For the molecule `Cn1c(Nc2ccc(C(F)(F)F)cc2)nc2cc(Oc3ccnc(-c4ncc(C(F)(F)F)[nH]4)c3)ccc21`, the “cytotoxicity CC50” value in the assay on Vero E6 [1] worked out at 316 nM. In addition, the “CPE rescue EC50” value with Vero E6 [3] was 794 nM.

Regarding `CCC[C@@H](C=O)NC(=O)[C@H](CC(C)C)NC(=O)[C@H](CC(C)C)NC(=O)OCc1ccccc1`, the “cytotoxicity CC50” value in the assay with Vero E6 [1] turned out to be 1130 nM. Also, in the assay on Vero E6 [2], the cytotoxicity maximal efficacy turned out to be 115%. For `c1ccc2c(-c3cnn4cc(-c5ccc(OCCN6CCOCC6)cc5)cnc34)ccnc2c1`, in that order: 5520 nM and 29.1%. For `COc1ccc2c(Oc3ccc(NC(=O)c4c(C)n(CC(C)(C)O)n(-c5ccccc5)c4=O)cc3F)ccnc2c1`, in that order: 14100 nM and 70.3%. For `O=c1cc(-c2cccc3c2Sc2ccccc2S3)oc(N2CCOCC2)c1`, the “cytotoxicity CC50” value with Vero E6 [1] is 10000 nM. Besides, the cytotoxicity maximal efficacy with Vero E6 [2] turned out to be 42.6%. With `CC(C)C(=O)O[C@H]1[C@@H]2[C@H](C)C(=O)O[C@@H]2C[C@@H](C)[C@@H]2C=CC(=O)[C@]21C`, the “cytotoxicity CC50” value with Vero E6 [1] was 12600 nM. The same molecule returned a cytotoxicity maximal efficacy in the assay on Vero E6 [2] of 34.2%.

Regarding `CCC(C)C(=O)OC12C(OC(C)=O)C(C)C3(O)C(C=C(CO)CC4(O)C(=O)C(C)=CC43)C1C2(C)C` (stereo unspecified), in the assay on Vero E6 [3], the “CPE rescue EC50” value came to 982 nM.

On to `Cn1cc(-c2ccc(-c3cncc(Cl)c3N3CCC4(CCNC4=O)CC3)cc2)cn1`, for which the “cytotoxicity CC50” value in the assay on Vero E6 [1] was 282 nM. As for `C[C@@H]1O[C@@H](O[C@@H]2[C@@H](O)[C@H](O[C@@H]3[C@@H](O)[C@@H](O)[C@H](O[C@H]4[C@H](OC(=O)[C@]56CCC(C)(C)C[C@H]5C5=CCC7[C@@]8(C)C[C@H](O)[C@H](O[C@@H]9O[C@@H](C)[C@H](O)[C@@H](O)[C@H]9O)[C@@](C)(CO)C8CC[C@@]7(C)[C@]5(C)C[C@H]6O)O[C@H](C)[C@H](O)[C@@H]4O)O[C@H]3C)OC[C@H]2O)[C@H](O)[C@H](O)[C@H]1O` (stereo partly specified), in the assay with Vero E6 [3], the “CPE rescue EC50” value was found to be 851 nM. Regarding `CN(CCCNC(=O)c1ccc2nc3c(c(Cl)c2c1)CCCC3)Cc1ccccc1`, the “cytotoxicity CC50” value in the assay with Vero E6 [1] was 12600 nM. The cytotoxicity maximal efficacy in the assay on Vero E6 [2] came to 39.1%. With `N#Cc1ccc(O[C@@H]2c3ccccc3C[C@H]2N2CCC[C@@H](N)C2)c(Cl)c1`, the “cytotoxicity CC50” value in the assay with Vero E6 [1] came to 12600 nM. Further, the cytotoxicity maximal efficacy with Vero E6 [2] worked out at 52.9%. As for `CN(CCc1ccc(Nc2ncc(-c3cccnc3)s2)cc1)Cc1ccccc1`, the “cytotoxicity CC50” value in the assay on Vero E6 [1] amounted to 12600 nM. For the same molecule, in the assay on Vero E6 [2], the cytotoxicity maximal efficacy was 44.4%. For the molecule `C[C@@H]1O[C@@H](O[C@H]2[C@H](OC(=O)[C@]34CCC(C)(C)C[C@H]3C3=CCC5[C@@]6(C)CC[C@H](O[C@@H]7O[C@H](CO[C@@H]8OC[C@H](O)[C@H](O)[C@H]8O)[C@@H](O)[C@H](O)[C@H]7O)C(C)(C)C6CC[C@@]5(C)[C@]3(C)C[C@H]4O)OC[C@@H](O)[C@@H]2O)[C@H](O)[C@H](O[C@@H]2OC[C@](O)(CO)[C@H]2O)[C@H]1O[C@@H]1OC[C@H](O)[C@H](O[C@@H]2OC[C@@H](O)[C@H](O)[C@H]2O)[C@H]1O` (stereo partly specified), in the assay with Vero E6 [3], the “CPE rescue EC50” value came to 955 nM. `COc1ccc(-c2csc(NC(=O)[C@H]3CCCCN3S(=O)(=O)c3ccc(C)cc3)n2)cc1`: the “cytotoxicity CC50” value with Vero E6 [1] was found to be 2000 nM. Take `O=S(=O)(NCC1CC1)c1ccc(Nc2nccc(N3CCCc4cc(O)ccc43)n2)cc1`: in the assay on Vero E6 [3], the “CPE rescue EC50” value came out at 794 nM. `C/C=C(\C)C(=O)OC1C(C)C2(O)C3C=C(C)C(=O)C3CC(CO)=CC2C2C(C)(C)C12OC(C)=O` (stereo unspecified): in the assay with Vero E6 [1], the “cytotoxicity CC50” value amounted to 348 nM.

Turning to `OC1CCC(Oc2cccc3cnc(Nc4ccc5nc[nH]c5c4)nc23)CC1` (stereo unspecified), the “cytotoxicity CC50” value in the assay with Vero E6 [1] was 891 nM. The molecule further came in with a cytotoxicity maximal efficacy with Vero E6 [2] of 50.5%. On to `c1ccc(-c2ccc(CNc3nc(-c4ccccn4)nnc3-c3ccccc3)cc2)cc1`, for which the “cytotoxicity CC50” value with Vero E6 [1] was 562 nM. Further, the “CPE rescue EC50” value in the assay on Vero E6 [3] turned out to be 631 nM. Regarding `COCCN1CCN(Cc2ccc(-c3n[nH]c4c3C(=O)c3c(NC(=O)NN5CCOCC5)cccc3-4)cc2)CC1`, the “cytotoxicity CC50” value in the assay on Vero E6 [1] worked out at 316 nM.

Consider `CC(C)[C@H]1C(=O)N[C@H](CO)Cc2c[nH]c3cccc(c23)N1C`, for which the “cytotoxicity CC50” value in the assay on Vero E6 [1] was found to be 1240 nM. In the assay on Vero E6 [2], this molecule returned a cytotoxicity maximal efficacy of 20.4%.
